Laboratory results reported in patent US20030026781A1, “Compositions and methods for regulating endogenous inhibitor of ATP synthase, including treatment for diabetes” (MitoKor, priority 1999, published 2003).
“And” between values parts separate entries of the source, which are not always exact repeats. Identical values can stand only once. One block for each molecule: values may come before it. Ends that are not written are not given here.

How the values were obtained:
INS-1 cells [1] = assay: Mitochondrial DNA content of INS-1 cells by slot blot with COX-I probe; conditions: for effect on mtDNA content: INS-1 cells incubated for seven days with nucleoside analog
INS-1 cells [2] = assay: Glucose-responsive insulin secretion by INS-1 cells depleted of mtDNA; type: cell-based, rat; conditions: cells treated with ddC (10 μM) for over 20 days; any glucose level tested
Experimental: INS-1 cells, or ρ^0 INS-1 cells generated using ddC as described above, were seeded into 12-well plates containing RPMI media supplemented as described at 0.5×10^6 cells/well and cultured at 37° C., 5% CO2 for 2 days. Cells (0.7×10^6 cells/well were rinsed with glucose-free KRH buffer (134 mM NaCl, 4.7 mM KCl, 1.2 mM KH2PO4, 1.2 mM MgSO4, 1.0 mM CaCl2, 10 mM HEPES, 10 mM NaHCO3, 0.5% BSA), then incubated in the same buffer for 1 hr at 37° C. in a humidified 5% CO2/95% air atmosphere. Fresh KRH buffer containing 0.5 mM isobutylmethyl xanthine and the following secretagogues was added: 5 mM glucose, 10 mM glucose, 20 mM glucose, 5 mM KCl or 20 mM KCl. After an additional 1 hr at 37° C., 5% CO2 the culture supernatants were collected. Insulin concentrations in the supernatants were measured and normalized to cell number using an insulin-specific radioimmunoassay kit (ICN Biochemicals, Irvine, Calif.) according to the manufacturer's instructions.

purified F1-ATPase = molecular target: T1, purified F1-ATPase (Bos taurus, UniProt P00829+P19483); assay: ATP hydrolysis by purified F1-ATPase; type: biochemical; conditions: bovine cardiac F1-ATPase; read-out: IC50 for inhibition of ATP hydrolysis by purified F1-ATPase
T1 construct: F1 ATPase subcomplexes were isolated from bovine cardiac samples; from tissue; host or cells: bovine heart (alkaline submitochondrial particles, chloroform extraction, method of Walker et al. 1995)
Experimental: (§1) F0-F1 ATPase complexes and F1 ATPase subcomplexes were isolated from bovine cardiac samples essentially according to the method of Walker et al. (Methods in Enzymology 260:163-190, 1995), with the exception that, instead of preparing SMPs (submitochondrial particles) at neutral pH, ASMPs (alkaline submitochondrial particles; see Rouslin and Broge, Anal. Biochem. 222:68-75, 1994) were prepared from bovine heart by sonication in a basic solution. The ASMPs were extracted with chloroform and used to prepare F0-F1 ATPase and F1 ATPase according to the method of Walker et al. (Methods in Enzymology 260:163-190, 1995).
(§2) One assay for ATPase activity involves measuring ATP hydrolysis according to methods known in the art (Walker et al., Methods in Enzymology 260:163-190, 1995; Rouslin and Broge, Anal. Biochem. 222:68-75, 1994). Such assays can be performed using purified F0-F1 ATPase complexes or F1 ATPase subcomplexes, or using alkaline submitochondrial particles (ASMPs).
In an initial experiment to validate the reagents and assay system, Aurovertin-B was used as a positive control. This antibiotic binds to and inhibits the activity of bacterial and mitochondrial ATPases (van Raaij et al., Proc. Natl. Acad. Sci. US.A. 93:14 6913-14 6917, 1996). The purified F1-ATPase described in the preceding Example was treated with varying concentrations of Aurovertin-B, and ATP hydrolyis was measured.

F0-F1-ATPase = molecular target: T2, F0-F1-ATPase (Bos taurus, UniProt P00829+P19483); assay: ATP hydrolysis by purified F0-F1-ATPase; type: biochemical; conditions: bovine cardiac F0-F1-ATPase
T2 construct: F0-F1 ATPase complexes and F1 ATPase subcomplexes were isolated from bovine cardiac samples; from tissue; host or cells: bovine heart (from alkaline submitochondrial particles, method of Walker et al. 1995)
Experimental: as §1, §2
In like fashion, the two IF1 polypeptide derivatives were tested for their ability to inhibit the purified F1-ATPase and F0-F1-ATPase. The results (FIG. 5) indicate that both synthetic polypeptides inhibited the F1 ATPase. […]

Molecule: Cc1cn([C@H]2C=C[C@@H](CO)O2)c(=O)[nH]c1=O [d4T]
effect on mtDNA content (INS-1 cells [1]): decreased mtDNA content in a dose-dependent fashion

Molecule: Nc1ccn([C@H]2CC[C@@H](CO)O2)c(=O)n1 [ddC, 2′3′-dideoxycytidine]
effect on mtDNA content (INS-1 cells [1]): decreased mtDNA content in a dose-dependent fashion
mtDNA detection (INS-1 cells [1]; INS-1 cells incubated with 25 ∥M ddC, after 21 days): undetectable
IC50 (INS-1 cells [1]; read-out: IC50 for decrease of mtDNA content, INS-1 cells, seven days): ~50000 nM
glucose stimulated insulin secretion (INS-1 cells [2]): not observed

Molecule: CC[C@H]1O[C@]2(C)[C@H](OC(C)=O)[C@@]1(C)O[C@@H](/C=C/C=C/C=C/c1oc(=O)cc(OC)c1C)[C@@H]2O [Aurovertin-B]
IC50 (purified F1-ATPase): 850 nM

IC50 (F0-F1-ATPase; read-out: IC50 for inhibition of purified F0-F1-ATPase): ~180 nM and 180 nM
Molecule: LAALKKHHEDEIDHHSK [IF1(42-58)]

IC50 for inhibition of purified F0-F1-ATPase (F0-F1-ATPase): no effect
Molecule: FGKREKAEEDRYFREKTREQLAALK [IF1(22-46)]

Molecule: O=c1[nH]cnc2c1ncn2[C@H]1CC[C@@H](CO)O1 [ddI, 2′3′-dideoxyinosine]
effect on mtDNA content (INS-1 cells [1]): decreased mtDNA content in a dose-dependent fashion
